The values below are quoted from earlier work in patent US6406529B1, “Method of reducing dentin sensitivity and compositions therefor” (MCG Research Institute, priority 1998, dated 2002).

The conditions of the series: 3% w/v applied to dentin; in vitro and in vivo.

Regarding `O=C([O-])C(=O)O.[K+]` [monopotassium-monohydrogen oxalate], the “Hydraulic conductance of dentin” value is recorded as “reduced”.
